From patent publication EP0069659A1, “Medicine containing the reaction product of a carboxylic acid and a basic amino acid” (CHANY, Charles, priority 1981, dated 1983)

Legend:
[1] = tested on: virus de l'encéphalomyocardite de la souris (EMC) de la souche Mengo; experiment: Antiviral protection of mice against the lethal effect of 100 DL50 of EMC virus; conditions: for survie lorsqu'on administre aussi de l'interféron: given together with interféron; for survie relevée au moment où la mortalité cesse dans la série d'animaux témoins: propionate d'arginine 0,252 mg/g, hexanoate d'arginine 0,29 mg/g, virus-only controls 5 sur 30
From the text: Dans ces expériences, on met en évidence l'activité antivirale contre l'effet léthal de 100 DL50 du virus de l'encéphalomyocardite.
Les animaux de laboratoire utilisés sont des souris du type "Swiss" provenant d'un élevage propre aux Inventeurs.
Le virus employé est celui de l'encéphalomyocar- dite de la souris (EMC) de la souche Mengo cultivée sur des cellules murines L 929.
Le titre des suspensions de virus est estimé par la "méthode des plages" en utilisant toujours des cellules murines L 929. On admet que 5 unités (UFP) formant des plages, correspondent à une dose léthale DL50.
Le virus est inoculé par voie intrapéritonéale.
On réalise également, à titre de comparaison, les expériences suivantes : • - prétraitement des animaux par le butyrate de sodium avant inoculation du virus EMC, • - traitement par le butyrate d'arginine ou de lysine simultanément à l'injection du virus.
Des groupes de souris témoin sont traités par le virus seul et le solvant (milieu isotonique) seul.
et on a administré pour chaque expérience 0,5 ml de ces solutions par souris de 25 g.
L'interféron a été administré à raison de 20.000 à 25.000 unités internationales par souris par voie intrapéritonéale sous un volume de 0,5 ml et l'immunostimulant, à savoir le corynébacterium parvum, souche Mérieux, a été injecté à l'animal par voie intrapéritonéale à raison de 200 µg/0,1 ml/souris.
L'action antivirale a été étudiée dans les mêmes conditions que plus haut.

[2] = tested on: mutant du sarcome de Crocker 180 TG; experiment: Antitumour activity in mice grafted intraperitoneally with ascitic sarcoma (nine experiments, figures 1 to 9); assay type: in vivo, souris Swiss
Experimental: La tumeur utilisée dans les expériences qui suivent est un mutant du sarcome de Crocker 180 TG qui résiste au traitement par les dérivés puriques.
Les animaux d'expériences sont toujours des souris Swiss de l'élevage susmentionné.
On leur inocule le sarcome par voie intrapéritonéale en utilisant une suspension de 10^6 cellules/0,5 ml.. La quantité inoculée est de 0,5 ml.
Les expériences ont été réalisées en utilisant : • - le butyrate d'arginine ou de lysine, • - l'interféron, • - le corynébacterium parvum (ou CP) de souche Mérieux.
Le butyrate d'arginine a été mis en oeuvre sous la forme et en quantité analogue à ce qui est indiqué plus haut pour l'activité antivirale.
Le CP est administré dans les expériences qui suivent sous la forme d'une dose unique appliquée au moment de la greffe ou trois jours après et se présentant sous la forme d'ampoules de 2 ml comprenant 4 mg en poids sec de germes tués par le formol et la chaleur; on injecte 0,1 ml de cette substance à la souris par voie intrapéritonéale.
On a procédé à neuf expériences indépendantes portant chacune sur plusieurs groupes de 15 animaux.
Dans la première de ces expériences (groupe témoin), on a greffé aux animaux la tumeur seule.
Dans les deuxième et troisième expériences, le butyrate d'amino-acide basique a été appliqué par voie intrapéritonéale à raison de 0,5 ml d'une solution 50 fois millimolaire par souris (c'est-à-dire à raison de respectivement 0,28 mg et 0,24 mg par g de souris), trois fois par semaine (à 48 heures d'intervalle) pendant trois semaines.
Dans la quatrième expérience, on a appliqué l'interféron à raison de 20.000 à 50.000 U.I. sous un volume de 0,5 ml administré à l'animal trois fois par semaine (à 48 heures d'intervalle) pendant trois semaines.
Dans la cinquième expérience, on a appliqué le CP en une dose unique de 200 microgrammes/0,1 ml par animal, administrée par voie intrapéritonéale en même temps ou trois jours après la greffe cellulaire.
Dans les sixième à neuvième expériences, on a appliqué, suivant le cas, le butyrate d'amino-acide basique, l'interféron et/ou le CP aux mêmes doses, au même rythme et aux mêmes moments que lorsque ces produits étaient appliqués seuls dans les expériences précédentes.
Ces histogrammes montrent, en fonction du temps (nombre de jours T), le nombre N d'animaux survivants et, parmi ces animaux survivants, le nombre d'animaux portant des tumeurs décelables.
Ainsi, le nombre d'animaux survivants est porté, pour un jour donné, en ordonnée sous la forme d'une colonne figurant le nombre d'animaux et à l'intérieur de laquelle on matérialise par des hachures le nombre d'animaux porteurs de tumeurs.

[3] = 45 animals at start, butyrate de lysine 0,24 mg/g i.p. 3 times a week for 3 weeks

In the case of butyrate de lysine, the effet protecteur ([1]; treatment given simultaneously with the injection of the virus) is reported as “aucun effet protecteur”, the “animaux restants au bout de 44 jours” value [2, 3] is reported as 2 and the “porteurs de tumeur parmi les animaux restants au bout de 44 jours” value [2, 3] is reported as 1. For the same substance, the “animaux porteurs de tumeurs au 10e jour” value ([2]; butyrate 0,5 ml of 50 mM i.p. 3 times a week for 3 weeks (0,28 or 0,24 mg/g), interféron 20.000 à 50.000 U.I. 3 times a week for 3 weeks, CP single dose 200 microgrammes i.p.) was 32 sur 45 and the “animaux survivants après 100 jours d'observation” value ([2]; same doses as E4, group sizes 45 to 75 animals, no control survives beyond day 28) was “un seul”.
With propionate d'arginine the “survie lorsqu'on administre aussi de l'interféron” value [1] was “considérablement augmentée” and the “survie relevée au moment où la mortalité cesse dans la série d'animaux témoins” value [1] was 18 sur 30.
hexanoate d'arginine was tested, and the “survie lorsqu'on administre aussi de l'interféron” value [1] was “considérablement augmentée” and the “survie relevée au moment où la mortalité cesse dans la série d'animaux témoins” value [1] was 11 sur 30.
